Assay results reported in patent US8202881B2, “JAK2 inhibitors and their use for the treatment of myeloproliferative diseases and cancer” (Bristol-Meyers Squibb Company, priority 2009, dated 2012).

Tests used:
[1] = test system: SET-2 cells; experiment: Cell Proliferation Inhibition Assay (3H-thymidine incorporation); assay type: cell-based; details: Homo sapiens, 72 h with compound
Procedure: Cell Proliferation Inhibition Assay
Compounds were evaluated for their ability to inhibit cell proliferation, using an assay that measures thymidine incorporation in the DNA of the dividing cell, which is directly correlated with cell numbers. SET-2 cells were plated at 10000 cells/well in 96-well plates and were cultured for 24 h in RPMI-1640 supplemented with 20% fetal bovine serum, before test compounds were added. Compounds were diluted in culture medium such that the final concentration of dimethyl sulfoxide never exceeded 0.1%. Following the addition of compounds, the cells were cultured for an additional 72 h before cell proliferation was determined by measuring DNA synthesis with 3H-thymidine incorporation.

[2] = target: JAK2 (Homo sapiens, UniProt O60674); experiment: JAK2 Tyrosine Kinase Assay; assay type: biochemical; details: for IC50: ATP 30 μM, JAK2 1 nM, 60 min room temperature
Procedure: JAK2 Tyrosine Kinase Assay
The assays were performed in V-bottom 384-well plates. The final assay volume was 30 μL prepared from 15 μL additions of enzyme and substrates (fluoresceinated peptide and ATP) and test compounds in assay buffer (100 mM HEPES pH 7.4, 10 mM MgCl2, 25 mM Beta-Glycerolphosphate, 0.015% Brij35 and 4 mM DTT). The reaction was initiated by the combination of JAK2 with substrates and test compounds. The reaction was incubated at room temperature for 60 min. and terminated by adding 45 μL of 35 mM EDTA to each sample. The reaction mixture was analyzed on the Caliper LabChip 3000 by electrophoretic separation of the fluorescent substrate and phosphorylated product. Inhibition data were calculated by comparison to no enzyme control reactions for 100% inhibition and vehicle-only reactions for 0% inhibition. The final concentration of reagents in the assays is ATP, 30 μM; JAK2 fluorescent peptide, 1.5 μM; JAK2, 1 nM; and DMSO, 1.6%. Dose response curves were generated to determine the concentration required inhibiting 50% of kinase activity (IC50). Compounds were dissolved at 10 mM in dimethylsulfoxide (DMSO) and evaluated at eleven concentrations, each in duplicate. IC50 values were derived by non-linear regression analysis

Chain of JAK2 (O60674 whole entry): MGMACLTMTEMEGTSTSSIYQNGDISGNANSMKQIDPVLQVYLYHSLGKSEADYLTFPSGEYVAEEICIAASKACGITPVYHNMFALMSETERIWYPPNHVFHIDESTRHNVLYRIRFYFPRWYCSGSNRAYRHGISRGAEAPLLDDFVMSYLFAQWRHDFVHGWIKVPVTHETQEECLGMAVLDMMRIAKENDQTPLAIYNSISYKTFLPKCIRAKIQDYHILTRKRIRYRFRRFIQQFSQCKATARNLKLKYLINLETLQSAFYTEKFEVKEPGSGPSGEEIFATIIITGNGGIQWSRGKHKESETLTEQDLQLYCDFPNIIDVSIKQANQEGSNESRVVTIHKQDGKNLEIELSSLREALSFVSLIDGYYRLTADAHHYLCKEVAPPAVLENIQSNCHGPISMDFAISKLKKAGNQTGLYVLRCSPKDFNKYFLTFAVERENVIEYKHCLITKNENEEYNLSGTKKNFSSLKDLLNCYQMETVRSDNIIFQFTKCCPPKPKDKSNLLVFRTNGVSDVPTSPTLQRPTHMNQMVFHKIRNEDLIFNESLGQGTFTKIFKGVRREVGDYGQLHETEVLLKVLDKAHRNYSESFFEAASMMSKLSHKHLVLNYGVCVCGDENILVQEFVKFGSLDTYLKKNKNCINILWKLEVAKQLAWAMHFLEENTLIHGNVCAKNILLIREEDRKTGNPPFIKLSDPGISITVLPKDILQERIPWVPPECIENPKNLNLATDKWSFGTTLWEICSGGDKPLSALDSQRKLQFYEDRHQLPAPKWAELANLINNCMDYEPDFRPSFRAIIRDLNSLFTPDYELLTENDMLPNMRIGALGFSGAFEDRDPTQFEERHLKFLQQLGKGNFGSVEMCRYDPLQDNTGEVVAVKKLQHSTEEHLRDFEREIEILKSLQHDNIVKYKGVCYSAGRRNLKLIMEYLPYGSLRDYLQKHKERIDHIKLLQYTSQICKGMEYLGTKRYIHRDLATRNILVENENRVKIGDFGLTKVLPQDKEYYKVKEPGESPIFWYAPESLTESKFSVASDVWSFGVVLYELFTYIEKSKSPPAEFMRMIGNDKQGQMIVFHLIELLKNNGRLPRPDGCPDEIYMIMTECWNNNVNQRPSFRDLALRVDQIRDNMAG

Structure (SMILES)	IC50 [1] [nM]	IC50 [2] [nM]	activity against JAK2 ([2]; result in words)
CCn1c(C(=O)N(C2CC2)C2CC2)cc2c3c(ncn3C)c(Nc3nc(C)c(C(=O)N4CCS(=O)(=O)CC4)s3)nc21 [Example 70]	330	0.733	–
CCn1c(C(=O)N(C2CC2)C2CC2)cc2c3c(ncn3C)c(Nc3nc4cc[nH]c(=O)c4s3)nc21 [Example 35, N,N-dicyclopropyl-6-ethyl-1-methyl-4-(4-oxo-4,5-dihydrothiazolo[5,4-c]pyridin-2-ylamino)-1,6-dihydroimidazo[4,5-d]pyrrolo[2,3-b]pyridine-7-carboxamide]	2850	0.536	–
CCNC(=O)c1nc(Nc2nc3c(cc(C(=O)N(C4CC4)C4CC4)n3CC)c3c2ncn3C)sc1C [Example 49, 2-(7-(dicyclopropylcarbamoyl)-6-ethyl-1-methyl-1,6-dihydroimidazo[4,5-d]pyrrolo[2,3-b]pyridine-4-ylamino)-N-ethyl-5-methylthiazole-4-carboxamide]	3930	50	–
CCn1c(C(=O)N(C2CC2)C2CC2)cc2c3c(ncn3C)c(Nc3nc(C)c(C(C)=O)s3)nc21 [Example 34, 4-(5-acetyl-4-methylthiazol-2-ylamino)-N,N-dicyclopropyl-6-ethyl-1-methyl-1,6-dihydroimidazo[4,5-d]pyrrolo[2,3-b]pyridine-7-carboxamide]	240	1.5	–
CCn1c(C(=O)N(C2CC2)C2CC2)cc2c3c(ncn3C)c(Nc3nc(C(=O)NC4CCS(=O)(=O)C4)cs3)nc21 (stereo not shown) [Example 15, N,N-dicyclopropyl-4-((4-((1,1-dioxidotetrahydro-3-thiophenyl)carbamoyl)-1,3-thiazol-2-yl)amino)-6-ethyl-1-methyl-1,6-dihydroimidazo[4,5-d]pyrrolo[2,3-b]pyridine-7-carboxamide]	490	1.52	–
CCn1c(C(=O)N(C2CC2)C2CC2)cc2c3c(ncn3C)c(Nc3nc(C)c(C(=O)NCC#N)s3)nc21 [Example 61, 4-((5-((cyanomethyl)carbamoyl)-4-methyl-1,3-thiazol-2-yl)amino)-N,N-dicyclopropyl-6-ethyl-1-methyl-1,6-dihydroimidazo[4,5-d]pyrrolo[2,3-b]pyridine-7-carboxamide]	–	0.751	–
CCn1c(C(=O)N(C2CC2)C2CC2)cc2c3c(ncn3C)c(Nc3nc4c(s3)CS(=O)(=O)CC4)nc21 [Example 33, 4-(5,5-dioxo-4,5,6,7-tetrahydro-5λ^6-thiopyrano[4,3-d]thiazol-2-ylamino)-6-ethyl-1-methyl-1,6-dihydro-1,3,5,6-tetraaza-as-indacene-7-carboxylic acid dicyclopropylamide]	10	0.637	–
CCn1c(C(=O)N(C2CC2)C2CC2)cc2c3c(ncn3C)c(Nc3nc(C)c(C(=O)N4CCC4)s3)nc21 [Example 55, 4-(5-(azetidine-1-carbonyl)-4-methylthiazol-2-ylamino)-N,N-dicyclopropyl-6-ethyl-1-methyl-1,6-dihydroimidazo[4,5-d]pyrrolo[2,3-b]pyridine-7-carboxamide]	4.3	0.748	–
CCn1c(C(=O)N(C2CC2)C2CC2)cc2c3c(ncn3C)c(Nc3cc(CN4CCOCC4)n(C)n3)nc21 [Example 116, N,N-dicyclopropyl-6-ethyl-1-methyl-4-(1-methyl-5-(morpholinomethyl)-1H-pyrazol-3-ylamino)-1,6-dihydroimidazo[4,5-d]pyrrolo[2,3-b]pyridine-7-carboxamide]	170	1.49	–
CCn1c(C(=O)N(C2CC2)C2CC2)cc2c3c(ncn3C)c(Nc3ncc(C#N)s3)nc21 [Example 38, 4-(5-cyanothiazol-2-ylamino)-N,N-dicyclopropyl-6-ethyl-1-methyl-1,6-dihydroimidazo[4,5-d]pyrrolo[2,3-b]pyridine-7-carboxamide]	60	40	–
CCn1c(C(=O)N(C2CC2)C2CC2)cc2c3c(ncn3C)c(Nc3cnn(C)c3)nc21 [Example 98, N,N-dicyclopropyl-6-ethyl-1-methyl-4-(1-methyl-1H-pyrazol-4-ylamino)-1,6-dihydroimidazo[4,5-d]pyrrolo[2,3-b]pyridine-7-carboxamide]	7.37	0.695	–
CCn1c(C(=O)N(C2CC2)C2CC2)cc2c3c(ncn3C)c(Nc3nc(C(C)(C)C)cs3)nc21 [Example 4, 4-(4-tert-butylthiazol-2-ylamino)-N,N-dicyclopropyl-6-ethyl-1-methyl-1,6-dihydroimidazo[4,5-d]pyrrolo[2,3-b]pyridine-7-carboxamide]	2530	30	–
CCn1c(C(=O)N(C2CC2)C2CC2)cc2c3c(ncn3C)c(Nc3nc(C)n(C)n3)nc21 [Example 125, N,N-dicyclopropyl-4-(1,5-dimethyl-1H-1,2,4-triazol-3-ylamino)-6-ethyl-1-methyl-1,6-dihydroimidazo[4,5-d]pyrrolo[2,3-b]pyridine-7-carboxamide]	1270	50	–
CCn1c(C(=O)N(C2CC2)C2CC2)cc2c3c(ncn3C)c(Nc3cc(C)n(C4CCC4)n3)nc21 [Example 81, 4-(1-cyclobutyl-5-methyl-1H-pyrazol-3-ylamino)-N,N-dicyclopropyl-6-ethyl-1-methyl-1,6-dihydroimidazo[4,5-d]pyrrolo[2,3-b]pyridine-7-carboxamide]	339	15.2	–
CCn1nc(Nc2nc3c(cc(C(=O)N(C4CC4)C4CC4)n3CC)c3c2ncn3C)cc1C(=O)O [Example 101, 3-(7-(dicyclopropylcarbamoyl)-6-ethyl-1-methyl-1,6-dihydroimidazo[4,5-d]pyrrolo[2,3-b]pyridin-4-ylamino)-1-ethyl-1H-pyrazole-5-carboxylic acid]	10000	0.743	–
CCNC(=O)c1cc2c(nc(NC)c3ncn(C)c32)[nH]1 [Example No. A171, reference compound]	–	–	weak activity
CCn1c(C(=O)N(C2CC2)C2CC2)cc2c3c(ncn3C)c(Nc3cc(C)n(C)n3)nc21 [Example 73, N,N-dicyclopropyl-4-(1,5-dimethyl-1H-pyrazol-3-ylamino)-6-ethyl-1-methyl-1,6-dihydroimidazo[4,5-d]pyrrolo[2,3-b]pyridine-7-carboxamide]	60	1	–
CCn1c(C(=O)N(C2CC2)C2CC2)cc2c3c(ncn3C)c(Nc3nc(C(F)(F)F)c(C)s3)nc21 [Example 29, N,N-dicyclopropyl-6-ethyl-1-methyl-4-(5-methyl-4-(trifluoromethyl)thiazol-2-ylamino)-1,6-dihydroimidazo[4,5-d]pyrrolo[2,3-b]pyridine-7-carboxamide]	10000	10	–
CCn1nc(Nc2nc3c(cc(C(=O)N(C4CC4)C4CC4)n3CC)c3c2ncn3C)cc1C(=O)NCCNC(C)=O [Example 109, 4-((5-((2-acetamidoethyl)carbamoyl)-1-ethyl-1H-pyrazol-3-yl)amino)-N,N-dicyclopropyl-6-ethyl-1-methyl-1,6-dihydroimidazo[4,5-d]pyrrolo[2,3-b]pyridine-7-carboxamide]	4150	1.52	–
CCn1c(C(=O)N(C2CC2)C2CC2)cc2c3c(ncn3C)c(Nc3nc(C)c(C(=O)NCCOC)s3)nc21 [Example 53, 2-(7-(dicyclopropylcarbamoyl)-6-ethyl-1-methyl-1,6-dihydroimidazo[4,5-d]pyrrolo[2,3-b]pyridin-4-ylamino)-N-(2-methoxyethyl)-4-methylthiazole-5-carboxamide]	100	1.47	–
CCn1c(C(=O)N(C2CC2)C2CC2)cc2c3c(ncn3C)c(Nc3nc(CF)cs3)nc21 [Example 3, N,N-dicyclopropyl-6-ethyl-4-(4-(fluoromethyl)thiazol-2-ylamino)-1-methyl-1,6-dihydroimidazo[4,5-d]pyrrolo[2,3-b]pyridine-7-carboxamide]	10	1.5	–
